Where two headings read alike, the source gives them in different places. Marks after values point to notes of the source that are not given here.
Columns and labels:
multiple myeloma [1] = details: cited from earlier work
OPM2 xenograft = experiment: Efficacy dose titration of pomalidomide in OPM2 xenograft; format: in vivo; details: for LCK (Log cell kill) / Median Days to Target Size / TGI (Tumor growth inhibition) / Weight Change % / CR (Complete regression) / PR (Partial regression): d14, 21; for CR (Complete regression) / PR (Partial regression): mice of 8; for effect on tumor growth (in words): pomalidomide 0.5, 5 and 50 mg/kg orally
Experimental: FIG. 1. Antitumor Activity of pomalidomide treatment on OPM2 Multiple Myeloma Xenograft. Pomalidomide was administered at either 0.5 mg/kg, 5 mg/kg, or 50 mg/kg. […] Group one was left untreated (control, circles), group two treated with pomalidomide (50 mg/kg, triangles), group three treated with pomalidomide (5 mg/kg, squares), group four treated with pomalidomide (0.5 mg/kg, diamonds). All treatment sets were dosed daily for 5 days orally starting on d14 and then again for 5 days on d21. The data are presented as means+/−standard deviation. From this experiment the suboptimal 5 mg/kg dose was chosen as the dose to use in combination studies with elotuzumab and/or dexamethasone. […]
To assess the effect of pomalidomide treatment on the growth of the OPM2 xenograft, scid mice with established tumors were treated orally with pomalidomide at doses of 0.5 mg/kg, 5 mg/kg and 50 mg/kg. […] From this experiment the suboptimal 5 mg/kg dose was chosen as the dose to use in the combination studies (Study #1, OPM2-15 and Study #2, OPM2-16).

multiple myeloma [2] = details: Ph II, patients administered pomalidomide; cited from earlier work
[3] = system: relapsed and refractory multiple myeloma; details: MM-002, cited from earlier work
[4] = Infusion reactions by infusion rate, phase 2 portion of CA204003 (1703); format: in vivo, human
Experimental: (§1) The maximum infusion rate of 2 ml/min was initially explored in the phase 1 and 2 elotuzumab clinical trials. However, the phase 2 portion of the CA204003 (1703) and the CA204009 studies allowed an infusion rate escalation in subjects without infusion reactions for a minimum of 4 cycles of study therapy at 2 ml/min. The infusion rates are allowed to increase by 1 ml/min per cycle, up to 5 ml/min.
(§2) Preliminary safety data of the 5 ml/minute infusion rate are based on an analysis of subjects who escalated the elotuzumab infusion to 5 ml/minute in the CA204003 (1703) and CA204009 studies. In the phase 2 portion of the CA204003 (1703) study, 33% of all study infusions and 42.5% of subjects received infusions at 5 ml/min. In subjects who were administered infusions ≤2 ml/min, there were 7 grade 1-2 infusion reactions, and 1 grade 3-4 infusion reaction. […] In the randomized phase 2 CA204009 study, 27% of all subjects and 9% of all infusions on the investigational arm received infusions at 5 ml/min.

[5] = Infusion reactions in Study CA204009; format: in vivo, human
Description: (§3) Elotuzumab can cause infusion reactions. Infusion reactions were reported in approximately 10% of patients treated with elotuzumab, lenalidomide and dexamethasone in Study CA204004 and in 7% of patients treated with elotuzumab, bortezomib and dexamethasone in Study CA204009. All reports of infusion reaction were ≤Grade 3. Grade 3 infusion reactions occurred in 1% of patients in Study CA204004 and in no patients in Study CA204009. The most common symptoms of an infusion reaction included fever, chills and hypertension. In Study CA204004, 5% of patients required interruption of the administration of elotuzumab due to infusion reaction for a median of 25 minutes and 1% of patients discontinued due to infusion reactions. In Study CA204009, 20% of patients required interruption of the administration of elotuzumab for a median of 40 minutes and none discontinued due to infusion reactions. Of the patients who experienced an infusion reaction, 70% (23/33) in Study CA204004 and 80% (4/5) in Study CA204009 had them during the first dose.
as §1, §2

[6] = Infusion reactions in Study CA204004; format: in vivo, human
Description: as §3

[7] = 10 and 20 mg/kg in combination with lenalidomide; cited from earlier work
human myeloma xenografts = details: intraperitoneally (IP), dose-dependent; cited from earlier work
[8] = system: primary multiple myeloma cells; details: in the presence of peripheral lymphocytes; cited from earlier work
[9] = Study CA204112, elotuzumab administration in <1 hour (5 ml/min); format: in vivo, human; details: infusion rate escalated to 5 ml/min by the third dose; with lenalidomide/dexamethasone
Experimental: Preliminary data are available for an ongoing study CA204112 with elotuzumab administration in <1 hour (5 ml/min) combined with lenalidomide/dexamethasone in newly diagnosed and relapsed/refractory myeloma. In this trial, the infusion rate was escalated to 5 ml/min by the third elotuzumab dose.

[10] = pomalidomide 0.5 mg/kg PO QD × 5
[11] = pomalidomide 50 mg/kg PO QD × 5

Nc1cccc2c1C(=O)N(C1CCC(=O)NC1=O)C2=O (racemic) [Pomalidomide, (RS)-4-amino-2-(2,6-dioxo-piperidin-3-yl)-isoindole-1,3-dione]
ORR (≥PR) (multiple myeloma [1]; 2 mg/day): 29%
median PFS (multiple myeloma [1]; 2 mg/day): 5.5 months
median duration of response (multiple myeloma [1]; 2 mg/day): 14.1 months
ORR (≥PR) (multiple myeloma [1]; 4 mg/day): 35%
median PFS (multiple myeloma [1]; 4 mg/day): 6.9 months
median duration of response (multiple myeloma [1]; 4 mg/day): 14.5 months
LCK (Log cell kill) (OPM2 xenograft; [10]): 0.19^g
Median Days to Target Size (OPM2 xenograft; [10]): 25 days
TGI (Tumor growth inhibition) (OPM2 xenograft; [10]): 45%
Weight Change % (OPM2 xenograft; [10]): 9.3%
CR (Complete regression) (OPM2 xenograft; [10]): 0/8
PR (Partial regression) (OPM2 xenograft; [10]): 0/8
LCK (Log cell kill) (OPM2 xenograft; pomalidomide 5 mg/kg PO QD × 5): 0.59^f
Median Days to Target Size (OPM2 xenograft; pomalidomide 5 mg/kg PO QD × 5): 29 days
TGI (Tumor growth inhibition) (OPM2 xenograft; pomalidomide 5 mg/kg PO QD × 5): 63.1%
Weight Change % (OPM2 xenograft; pomalidomide 5 mg/kg PO QD × 5): 3.2%
CR (Complete regression) (OPM2 xenograft; pomalidomide 5 mg/kg PO QD × 5): 0/8
PR (Partial regression) (OPM2 xenograft; pomalidomide 5 mg/kg PO QD × 5): 0/8
LCK (Log cell kill) (OPM2 xenograft; [11]): 1.0^e
Median Days to Target Size (OPM2 xenograft; [11]): 33 days
TGI (Tumor growth inhibition) (OPM2 xenograft; [11]): 87.1%
Weight Change % (OPM2 xenograft; [11]): 4.7%
CR (Complete regression) (OPM2 xenograft; [11]): 0/8
PR (Partial regression) (OPM2 xenograft; [11]): 1/8
effect on tumor growth (in words) (OPM2 xenograft): suppressed tumor growth in a dose-dependent fashion
effect on tumor growth (in words) (OPM2 xenograft; listed as pomalidomide): inhibited tumor growth in a dose-dependent fashion
median progression free survival (multiple myeloma [2]): 11.6 months
overall response rate (multiple myeloma [2]): 63%
patients achieving VGPR or CR (multiple myeloma [2]): 33%
Grade 3/4 anemia [3]: 24%
Grade 3/4 neutropenia [3]: 48%
Grade 3/4 thrombocytopenia [3]: 22%
ORR (≥PR) [3]: 18%
fatigue [3]: 11%
frequency of febrile neutropenia [3]: 5%
incidence of DVT [3]: 3%
median OS [3]: 13.6 months
median response duration [3]: 10.7 months
pneumonia [3]: 15%
median PFS ([3]; pomalidomide 4 mg/day d1-21 of 28, dexamethasone 40 mg/week, median follow-up 14.2 months): 2.7 months

Elotuzumab: humanized monoclonal IgG1 antibody directed against CS-1; VL SEQ ID NO:1, VH SEQ ID NO:2
grade 3-4 infusion reactions ([4]; infusion rates >2 ml/min): no grade 3-4 infusion reactions
number of grade 1-2 infusion reactions ([4]; infusion rates >2 ml/min): 1
number of grade 1-2 infusion reactions ([4]; infusions ≤2 ml/min): 7
number of grade 3-4 infusion reactions ([4]; infusions ≤2 ml/min): 1
median duration of interruption [5]: 40 min
patients discontinued due to infusion reactions [5]: none
patients requiring interruption of administration [5]: 20%
patients with Grade 3 infusion reactions [5]: no patients
patients with infusion reaction who had it during the first dose [5]: 80%
infusion reactions ([5]; subjects reaching infusion rates >2 ml/min): no infusion reactions of any grade
patients with infusion reactions ([5]; with bortezomib and dexamethasone): 7%
median duration of interruption [6]: 25 min
patients discontinued due to infusion reactions [6]: 1%
patients requiring interruption of administration due to infusion reaction [6]: 5%
patients with Grade 3 infusion reactions [6]: 1%
patients with infusion reaction who had it during the first dose [6]: 70%
patients with infusion reactions ([6]; with lenalidomide and dexamethasone): approximately 10%
steady-state Cmin [7]: above 70 μg/mL
tumor growth (human myeloma xenografts): inhibits tumor growth of human myeloma xenografts
ADCC [8]: induces significant antibody-dependent cellular cytotoxicity (ADCC)
frequency of infusion reactions [9]: no increased frequency of infusion reactions
